pIC50: −log10 of the molar value.
Assays:
BRD4 (His-Brd4(44-477)) = BRD4 (His-Brd4(44-477)) (Homo sapiens (Human), UniProt O60885); assay: TR-FRET in-vitro binding assay for BRD4; conditions: acetyl-histone H4 peptide
Protocol: (§1) TR-FRET In-Vitro Binding Assays for BRD2, BRD3, and BRD4:
(§2) All assays were performed in 384 well microtiter plates. Each assay plate contained 8-point serial dilutions for 40 test compounds, plus 16 high- and 16 low controls. Liquid handling and incubation steps were done on an Innovadyne Nanodrop Express equipped with a robotic arm (Thermo CatX, Perkin Elmer/Caliper Twister II) and an incubator (Liconic STX40, Thermo Cytomat 2C450). The assay plates were prepared by addition of 50 nl per well of compound solution in 90% DMSO HummingBird nanodispenser (Zinsser Analytic). The assay was started by stepwise addition of 4.5 μl per well of bromo domain protein (50 mM HEPES, pH 7.5, 0.005% Tween20, 0.1% BSA, 50 mM NaCl, 45 nM His-Brd2(60-472) or 45 nM His-Brd3(20-477) or 45 nM His-Brd4(44-477) all proteins produced in-house) and 4.5 μl per well of peptide solution (50 mM HEPES, pH 7.5, 0.005% Tween20, 0.1% BSA, 50 mM NaCl, 60 nM acetyl-histone H4 (AcK 5, 8, 12, 16) (Biosyntan GmbH)). Reactions were incubated at 30° C. for 35 minutes. […] After 35 minutes incubation at 30° C., plates were measured in a Perkin Elmer EnVision multilabel reader. Concentrations causing 50% inhibition (IC50 values) were determined from percent inhibition values at different compound concentrations by non-linear regression analysis.
(§3) Preparation of Compound Dilutions
(§4) Test compounds were dissolved in DMSO (10 mM) and transferred into 1.4 mL flat bottom or V-shaped Matrix tubes carrying a unique 2D matrix. The stock solutions were stored at […] if not used immediately. For the test procedure the vials were defrosted and identified by a scanner whereby a working sheet was generated that guided the subsequent working steps. Compound dilutions were made in 96 well plates. This format enabled the assay of maximally 40 individual test compounds at 8 concentrations (single points) including 4 reference compounds, if desired (known BET inhibitors from the prior art, for this and other assays of the type disclosed herein). The dilution protocol included the production of “pre-dilution plates”, “master plates” and “assay plates”.
(§5) Pre-dilution plates: 96 polypropylene well plates were used as pre-dilution plates. A total of 4 pre-dilution plates were prepared including 10 test compounds each on the plate positions A1-A10, one standard compound at A11 and one DMSO control at A12. All dilution steps were done on a HamiltonSTAR robot.
(§6) Master plates: 30 μL of individual compound dilutions including standard compound and controls of the 4 “pre-dilution plates” were transferred into a 384 “master plate” including the following concentrations 10000, 3003, 1000, 300, 100, 30, 10 and 3 μM, respectively in 90% of DMSO.
(§7) Assay plates: Identical “assay plates” were then prepared by pipetting 50 nL each of compound dilutions of the “master plates” into 384-well “assay plates” by means of a HummingBird 384-channel dispenser. These plates were used directly for the assay which was performed in a total volume of 13.55 μL. This led to a final compound concentration of 37, 11, 3.7, 1.1, 0.37, 0.11, 0.037 and 0.011 μM and a final DMSO concentration of 0.37% in the assay.

BRD2 (His-Brd2(60-472)) = BRD2 (His-Brd2(60-472)) (Homo sapiens (Human), UniProt P25440); assay: TR-FRET in-vitro binding assay for BRD2; conditions: acetyl-histone H4 peptide
Sequence of BRD2 (His-Brd2(60-472)) (P25440 60-472): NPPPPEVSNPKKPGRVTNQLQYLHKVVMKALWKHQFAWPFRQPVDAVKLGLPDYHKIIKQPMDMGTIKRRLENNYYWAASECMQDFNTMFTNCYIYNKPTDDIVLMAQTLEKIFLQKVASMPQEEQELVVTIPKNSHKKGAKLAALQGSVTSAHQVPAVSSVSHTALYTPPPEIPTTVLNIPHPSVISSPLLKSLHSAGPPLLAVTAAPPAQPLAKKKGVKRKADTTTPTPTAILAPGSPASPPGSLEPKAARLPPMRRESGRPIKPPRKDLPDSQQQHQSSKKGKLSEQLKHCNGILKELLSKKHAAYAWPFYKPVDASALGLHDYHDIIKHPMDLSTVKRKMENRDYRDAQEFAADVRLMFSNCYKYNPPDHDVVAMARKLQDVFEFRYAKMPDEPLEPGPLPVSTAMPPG
Protocol: as §1, §2, §3, §4, §5, §6, §7

BRD3 (His-Brd3(20-477)) = BRD3 (His-Brd3(20-477)) (Homo sapiens (Human), UniProt Q15059); assay: TR-FRET in-vitro binding assay for BRD3; conditions: acetyl-histone H4 peptide
Sequence of BRD3 (His-Brd3(20-477)) (Q15059 20-477): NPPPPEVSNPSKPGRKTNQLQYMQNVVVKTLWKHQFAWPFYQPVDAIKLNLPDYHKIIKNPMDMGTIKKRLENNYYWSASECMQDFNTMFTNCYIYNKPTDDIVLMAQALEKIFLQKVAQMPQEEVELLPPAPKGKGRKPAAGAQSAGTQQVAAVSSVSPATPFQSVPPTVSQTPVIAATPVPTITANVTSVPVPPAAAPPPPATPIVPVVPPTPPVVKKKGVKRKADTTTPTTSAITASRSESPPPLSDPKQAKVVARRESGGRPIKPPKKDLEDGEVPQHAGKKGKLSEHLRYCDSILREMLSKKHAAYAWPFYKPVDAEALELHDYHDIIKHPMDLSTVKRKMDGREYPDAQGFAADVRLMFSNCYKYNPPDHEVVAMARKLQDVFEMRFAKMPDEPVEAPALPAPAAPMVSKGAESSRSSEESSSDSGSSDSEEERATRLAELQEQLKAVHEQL
Protocol: as §1
All assays were performed in 384 well microtiter plates. Each assay plate contained 8-point serial dilutions for 40 test compounds, plus 16 high- and 16 low controls. Liquid handling and incubation steps were done on an Innovadyne Nanodrop Express equipped with a robotic arm (Thermo CatX, Perkin Elmer/Caliper Twister II) and an incubator (Liconic STX40, Thermo Cytomat 2C450). The assay plates were prepared by addition of 50 nl per well of compound solution in 90% DMSO HummingBird nanodispenser (Zinsser Analytic). […] Reactions were incubated at 30° C. for 35 minutes. […] After 35 minutes incubation at 30° C., plates were measured in a Perkin Elmer EnVision multilabel reader.
as §3, §4, §5
(§8) These plates were used directly for the assay which was performed in a total volume of 13.55 μL.

[1] = target: CREBBP bromodomain (His-CREBBP(1081-1197)) (Homo sapiens (Human), UniProt Q92793); assay: AlphaScreen in-vitro binding assay for CREBBP; conditions: AlphaScreen, acetyl-histone H4 peptide; read-out: CREBBP IC50
Sequence of CREBBP bromodomain (His-CREBBP(1081-1197)) (Q92793 1081-1197): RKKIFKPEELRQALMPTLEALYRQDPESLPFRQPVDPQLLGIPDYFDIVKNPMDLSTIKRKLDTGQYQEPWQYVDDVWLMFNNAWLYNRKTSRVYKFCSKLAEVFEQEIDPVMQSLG
Protocol: AlphaScreen In-Vitro Binding Assay for CREBBP
In order to assess bromodomain selectivity, we set up a binding assay using the bromodomain encoded by the CREBBP gene. […] Reactions were incubated at 30° C. for 35 minutes. Subsequently 4.5 μl per well detection mix (50 mM HEPES, pH 7.5, 0.005% Tween20, 0.02% BSA, 150 mM NaCl, 45 μg/ml Ni-chelate acceptor beads, 45 μg/ml streptavidin-donor beads) (Perkin Elmer)) were added. After 60 minutes incubation at room temperature, plates were measured in a Perkin Elmer EnVision multilabel reader. IC50 values were determined from percent inhibition values at different compound concentrations by non-linear regression analysis.
as §3, §4, §5, §8

MV-4-11 cells = assay: Cell growth inhibition assay (CellTiter-Glo), MV-4-11; format: cell-based, human; conditions: MV-4-11, 4 days; for GI50: Homo sapiens, MV4-11, 96 h, half-maximal growth inhibition; for MV-4-11 TGI: total growth inhibition
Protocol: (§9) Cell Growth Inhibition Assay
(§10) The human leukemia cell lines MV-4-11, THP-1 and K-562 were employed to characterize the effect of BET inhibitors on cellular proliferation and viability. Cells were obtained from the American Type Culture Collection (ATCC) and cultured at 37° C. in a humidified 5% CO2 incubator in the following media: MV-4-11: DMEM high glucose (Animed #1-26F01-I), 10% FCS (Animed #2-01F26-I), 4 mM L-Glutamine (Animed #5-10K50), 1 mM Sodium Pyruvate (Animed #G03625P), lx Penicillin-Streptomycin (Animed #F12478P); K-562: Iscove's MEM (Animed #1-28F16-I), 10% FCS (Animed #2-01F26-I), 4 mM L-Glutamine (Animed #5-10K50), 1× Penicillin-Streptomycin (Animed #F12478P); THP-1: RPMI-1640 (Animed #1-41F01-I), 10% FCS (Animed #2-01F26-I), 2 mM L-Glutamine (Animed #5-10K50), 10 mM HEPES (Animed #5-31F100), 1 mM Sodium Pyruvate (Animed #G03625P), 1× Penicillin-Streptomycin (Animed #F12478P). The AML lines MV-4-11 and THP-1 are very sensitive to BET inhibitors and show massive cell death upon BET inhibition (Zuber et al., Nature, 478 (2011), 524-8). Compound-mediated suppression of cell proliferation/viability was assessed by quantification of cellular ATP levels using the CellTiter-Glo (CTG) reagent (Promega). Briefly, cells were seeded in 20 μl fresh medium into 384-well plates, followed by addition of 5 μl medium containing compound dilutions at 5-fold their final intended concentration. Dose-response effects were assessed by 3-fold serial dilutions of the test compound, starting at 10 μM. Following incubation of the cells for 4 days at 37° C. and 5% CO2, the effect of inhibitors on cell viability was quantified following addition of 20 μl CTG and luminescence quantification (integration time: 100 ms) as per vendor manual, using a correspondingly equipped Tecan M200 multi-mode platereader (TECAN, Switzerland). For data analysis, the assay background value determined in wells containing medium, but no cells, was subtracted from all data points. To enable differentiation of cytotoxic from cytostatic compounds, the number of viable cells is assessed relative to that observed at the time of compound addition using a separate cell plate (day 0). The effect of a particular test compound concentration on cell proliferation/viability is expressed as percentage of the background- and day 0-corrected luminescence reading obtained for cells treated with vehicle only (DMSO, 0.1% final concentration), which is set as 100%, whereas that luminescence reading for wells containing medium is set as −100%. Compound concentrations leading to half-maximal (IC50) and total growth inhibition (TGI) were determined using standard four parameter curve fitting.

THP-1 cells = assay: Cell growth inhibition assay (CellTiter-Glo), THP-1; format: cell-based, human; conditions: THP-1, 4 days; for GI50: Homo sapiens, 96 h, half-maximal growth inhibition; for THP-1 TGI: total growth inhibition
Protocol: as §9, §10

K-562 cells = assay: Cell growth inhibition assay (CellTiter-Glo), K-562; format: cell-based, human; conditions: K-562, 4 days; for GI50: Homo sapiens, K562, 96 h, half-maximal growth inhibition; for K-562 TGI: total growth inhibition
Protocol: as §9, §10

| SMILES | pIC50 (BRD4 (His-Brd4(44-477))) | pIC50 (BRD2 (His-Brd2(60-472))) | pIC50 (BRD3 (His-Brd3(20-477))) | pIC50 [1] | GI50 (MV-4-11 cells) | MV-4-11 TGI (MV-4-11 cells) | GI50 (THP-1 cells) | THP-1 TGI (THP-1 cells) | GI50 (K-562 cells) | K-562 TGI (K-562 cells) |
| --- | --- | --- | --- | --- | --- | --- | --- | --- | --- | --- |
| Cc1cc(N2C(=O)c3c(C4CC4)nn(C)c3[C@H]2c2ccc(Cl)cc2)nn2c(C)nnc12 [Example 24, (R)-6-(4-chlorophenyl)-3-cyclopropyl-5-(3,8-dimethyl-[1,2,4]triazolo[4,3-b]pyridazin-6-yl)-1-methyl-5,6-dihydropyrrolo[3,4-c]pyrazol-4(1H)-one] | > 7.96 | > 7.96 | > 7.96 | 4.72 | 0.643 nM | 1.57 nM | 1.88 nM | 4.91 nM | 10.4 nM | >10000 nM |
| Cc1cc(N2C(=O)c3c(C4CC4)nn(-c4ccnn4C)c3C2c2ccc(Cl)cc2)nn2c(C)nnc12 (stereo not drawn) [Example 25, 6-(4-chlorophenyl)-3-cyclopropyl-5-(3,8-dimethyl-[1,2,4]triazolo[4,3-b]pyridazin-6-yl)-1-(1-methyl-1H-pyrazol-5-yl)-5,6-dihydropyrrolo[3,4-c]pyrazol-4(1H)-one] | 7.60 | 7.49 | 7.62 | < 4.43 | 6.65 nM | 15.9 nM | 20.1 nM | 44.4 nM | 91.6 nM | >10000 nM |
| Cc1nnc2c(N)cc(N3C(=O)c4c(C5CC5)nn(C)c4C3c3ccc(Cl)cc3)cn12 (stereo not drawn) [Example 28, 5-(8-amino-3-methyl-[1,2,4]triazolo[4,3-a]pyridin-6-yl)-6-(4-chlorophenyl)-3-cyclopropyl-1-methyl-5,6-dihydropyrrolo[3,4-c]pyrazol-4(1H)-one] | 7.68 | 7.39 | 7.47 | 5.43 | 1.56 nM | 3.515 nM | 2.83 nM | 9.04 nM | 9.66 nM | >10000 nM |

From US9624247B2, “Pyrazolo-pyrrolidin-4-one derivatives as bet inhibitors and their use in the treatment of disease” (NOVARTIS AG, priority 2013, dated 2017)
